Assays:
[1] = target: Hsp90-NTD (Homo sapiens, UniProt P07900); test: [1H, […]] HSQC NMR titration; type: binding
[2] = target: Aha1 (Homo sapiens, UniProt O95433); test: ITC; type: binding
Chain of Aha1 (O95433 204-338): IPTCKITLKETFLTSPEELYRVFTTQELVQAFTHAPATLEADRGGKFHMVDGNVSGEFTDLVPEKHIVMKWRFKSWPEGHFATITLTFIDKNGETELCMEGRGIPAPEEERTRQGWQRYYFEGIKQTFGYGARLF

- Kd [1]: 15.1 ± 3.86 µM
- Kd [2]: 0.84 ± 0.35 µM
SMILES: CCc1oc2ccccc2c1C(=O)c1cc(Br)c(O)c(Br)c1 [Benzbromarone]
